These results are taken from ChEMBL document CHEMBL1201862, “PubChem BioAssay data set” (2004).

Experiment [1] is described as follows: blockers of bursicon-stimulated LGR2 cAMP reporter – cell-based, HEK293, CRE-luciferase reporter, cherry pick, set 2, dose response (AID 743343).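 Note: transfected cells were stimulated with diluted bursicon conditioned medium after compound addition.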 In kind it is functional.
Experiment [2] can be described thus: blockade of melanocortin 4 receptor signaling – cell-based, plate reader, cherry pick, counter-screen for LGR2 antagonist project, dose response (AID 743444).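 Note: transfected HEK 293 cells stimulated with alpha-MSH peptide; potency of inhibitors of the alpha-MSH evoked signal.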 In kind it is functional.
The subject of the next experiment is HEK293. Briefly: EBV LMP1 TES2 canonical NF-kB signalling blockers – cell-based, HEK293, luciferase, cherry-pick, dose response (AID 588343). In kind it is functional. To be noted: Homo sapiens.
A short description of experiment [3]: A549 cell cytotoxicity, dose response, cytotoxicity control, plate reader, cherry-pick, antagonist series (AID 743412). In kind it is functional, cell-based.
The target in a further experiment is Beta-galactosidase (Escherichia coli, UniProt Q8VNN2). Briefly: Dose response counterscreen for EBI2 assay utilizing the enzyme, b-galactosidase. In kind it is functional.
The target in experiment [4] is T1, Sentrin-specific protease 8 (Homo sapiens, UniProt Q96LD8).
T1 sequence (Q96LD8 whole entry): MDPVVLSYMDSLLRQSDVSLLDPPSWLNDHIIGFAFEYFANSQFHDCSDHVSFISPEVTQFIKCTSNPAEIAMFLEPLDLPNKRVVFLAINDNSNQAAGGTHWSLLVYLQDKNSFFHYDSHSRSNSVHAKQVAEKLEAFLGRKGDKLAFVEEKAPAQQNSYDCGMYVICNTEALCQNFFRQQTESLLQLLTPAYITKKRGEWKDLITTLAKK
In kind it is functional.

Another experiment concerns the target T2, Protein RecA (Mycobacterium tuberculosis, UniProt P9WHJ3).
T2 sequence (P9WHJ3 whole entry): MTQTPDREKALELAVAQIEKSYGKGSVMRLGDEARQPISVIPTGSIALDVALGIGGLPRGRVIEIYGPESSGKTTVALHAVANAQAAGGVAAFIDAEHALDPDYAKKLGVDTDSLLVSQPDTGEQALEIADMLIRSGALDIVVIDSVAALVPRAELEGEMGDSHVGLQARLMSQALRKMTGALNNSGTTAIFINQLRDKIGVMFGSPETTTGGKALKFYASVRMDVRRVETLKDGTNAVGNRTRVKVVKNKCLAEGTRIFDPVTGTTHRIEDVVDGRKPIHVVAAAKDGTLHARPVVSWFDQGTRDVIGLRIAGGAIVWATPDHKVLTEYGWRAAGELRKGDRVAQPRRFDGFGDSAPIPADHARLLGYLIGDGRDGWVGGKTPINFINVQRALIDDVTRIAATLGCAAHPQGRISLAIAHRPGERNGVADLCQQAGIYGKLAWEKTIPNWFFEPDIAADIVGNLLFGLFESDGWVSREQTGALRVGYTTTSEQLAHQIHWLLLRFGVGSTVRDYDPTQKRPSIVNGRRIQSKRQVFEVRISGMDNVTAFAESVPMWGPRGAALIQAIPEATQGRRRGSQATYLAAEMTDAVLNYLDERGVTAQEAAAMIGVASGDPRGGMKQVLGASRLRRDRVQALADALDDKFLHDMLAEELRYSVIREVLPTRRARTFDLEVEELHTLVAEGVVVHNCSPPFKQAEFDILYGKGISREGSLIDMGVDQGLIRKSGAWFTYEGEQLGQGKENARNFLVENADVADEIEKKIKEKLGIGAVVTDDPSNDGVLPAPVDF
Briefly: Fluorescence Cell-Free Homogeneous Dose Retest to Identify Inhibitors of RecA-Intein Splicing Activity. [Related pubchem assays (depositor defined):AID2097, AID2223, AID489010, AID492950]. In kind it is functional.

Experiment [5] deals with T1, Sentrin-specific protease 8. In kind it is functional. The source holds these as a separate data set.
The target of experiment [6] is T3, Replicative DNA helicase DnaB (Mycobacterium tuberculosis, UniProt P9WMR3).
T3 sequence (P9WMR3 whole entry): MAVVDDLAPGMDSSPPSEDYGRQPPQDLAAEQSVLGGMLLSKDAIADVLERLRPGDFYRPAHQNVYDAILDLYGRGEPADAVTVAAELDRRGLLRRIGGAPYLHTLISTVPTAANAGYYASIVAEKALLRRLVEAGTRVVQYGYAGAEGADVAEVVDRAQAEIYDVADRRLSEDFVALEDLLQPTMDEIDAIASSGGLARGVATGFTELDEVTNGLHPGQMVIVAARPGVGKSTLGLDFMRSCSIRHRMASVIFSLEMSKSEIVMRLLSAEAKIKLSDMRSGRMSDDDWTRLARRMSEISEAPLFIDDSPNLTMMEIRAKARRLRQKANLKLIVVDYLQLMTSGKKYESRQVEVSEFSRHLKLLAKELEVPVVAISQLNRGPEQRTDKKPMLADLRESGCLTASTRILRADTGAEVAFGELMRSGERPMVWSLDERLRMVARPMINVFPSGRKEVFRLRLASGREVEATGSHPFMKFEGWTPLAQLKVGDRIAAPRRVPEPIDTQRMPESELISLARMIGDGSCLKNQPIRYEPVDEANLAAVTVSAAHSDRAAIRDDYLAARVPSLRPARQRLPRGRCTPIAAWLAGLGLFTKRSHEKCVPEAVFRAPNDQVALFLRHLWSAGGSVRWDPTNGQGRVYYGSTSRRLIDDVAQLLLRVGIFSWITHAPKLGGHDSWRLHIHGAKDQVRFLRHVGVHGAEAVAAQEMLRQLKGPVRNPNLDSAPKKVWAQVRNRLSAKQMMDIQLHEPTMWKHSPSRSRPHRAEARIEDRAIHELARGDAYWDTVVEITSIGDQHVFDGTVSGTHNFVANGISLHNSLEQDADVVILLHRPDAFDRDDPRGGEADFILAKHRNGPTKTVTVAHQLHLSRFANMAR
Briefly: DnaB intein splicing inhibitors, dose response, biochemical, cell-free fluorescence (AID 449749). In kind it is functional.

The target in experiment [7] is T4, Histone-lysine N-methyltransferase NSD2 (Homo sapiens, UniProt O96028).
T4 sequence (O96028 whole entry): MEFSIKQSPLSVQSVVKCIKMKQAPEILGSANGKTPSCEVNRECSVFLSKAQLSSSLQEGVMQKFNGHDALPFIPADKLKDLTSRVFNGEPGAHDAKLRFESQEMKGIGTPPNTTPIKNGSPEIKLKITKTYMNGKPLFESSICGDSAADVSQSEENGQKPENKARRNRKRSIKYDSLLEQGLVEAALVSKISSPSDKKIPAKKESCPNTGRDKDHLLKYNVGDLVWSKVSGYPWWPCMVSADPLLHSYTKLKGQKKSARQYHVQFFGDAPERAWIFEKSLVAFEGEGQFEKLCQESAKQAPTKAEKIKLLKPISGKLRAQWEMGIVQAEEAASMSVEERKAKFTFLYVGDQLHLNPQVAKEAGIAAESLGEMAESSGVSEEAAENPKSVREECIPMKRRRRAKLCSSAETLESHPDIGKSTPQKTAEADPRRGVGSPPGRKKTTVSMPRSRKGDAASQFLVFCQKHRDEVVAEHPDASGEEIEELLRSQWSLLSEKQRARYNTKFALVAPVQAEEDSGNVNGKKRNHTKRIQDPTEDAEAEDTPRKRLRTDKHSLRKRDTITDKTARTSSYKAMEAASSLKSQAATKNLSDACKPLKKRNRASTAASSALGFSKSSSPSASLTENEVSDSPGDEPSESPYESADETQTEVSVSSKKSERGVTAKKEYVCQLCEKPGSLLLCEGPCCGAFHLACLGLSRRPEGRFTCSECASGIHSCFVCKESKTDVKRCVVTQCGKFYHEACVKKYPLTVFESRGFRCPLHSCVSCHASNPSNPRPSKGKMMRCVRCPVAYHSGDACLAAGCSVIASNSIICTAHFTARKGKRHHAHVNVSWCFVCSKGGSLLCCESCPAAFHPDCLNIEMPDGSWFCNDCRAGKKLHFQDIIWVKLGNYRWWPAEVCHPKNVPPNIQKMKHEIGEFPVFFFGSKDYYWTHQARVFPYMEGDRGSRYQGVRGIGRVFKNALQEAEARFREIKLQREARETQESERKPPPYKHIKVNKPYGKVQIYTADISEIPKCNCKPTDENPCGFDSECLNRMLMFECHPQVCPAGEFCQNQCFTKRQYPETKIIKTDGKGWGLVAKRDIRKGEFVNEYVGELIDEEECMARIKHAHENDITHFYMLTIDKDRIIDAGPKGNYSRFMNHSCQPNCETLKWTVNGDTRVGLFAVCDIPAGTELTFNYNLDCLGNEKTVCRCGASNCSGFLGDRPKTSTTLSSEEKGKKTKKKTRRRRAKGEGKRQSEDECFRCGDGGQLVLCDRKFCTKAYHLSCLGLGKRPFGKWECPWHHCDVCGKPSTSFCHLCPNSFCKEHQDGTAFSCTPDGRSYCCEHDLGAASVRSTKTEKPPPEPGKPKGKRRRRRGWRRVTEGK
In kind it is biochemical.

A short description of experiment [8]: Luminescence Cell-Based Dose Response HTS to Identify Inhibitors of 5'UTR Stem-Loop Driven Prion Protein mRNA Translation in H4 Neuroglioblastoma Cells. [Related pubchem assays: 1827 (Project Summary), 1813 (Primary HTS)]. In kind it is functional.
Experiment [9] relates to BJ. Briefly: BJ-TERT-LT-ST fibroblast viability loss – cell-based, RAS-independent, luminescence, dose response (AID 1935).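 Note: BJ fibroblasts immortalized with TERT plus LT and ST oncogenes.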 In kind it is functional. To be noted: Homo sapiens.
Experiment [10] deals with BJ. The experiment can be described thus: cells. In kind it is functional, cell-based. To be noted: Homo sapiens.
A short description of experiment [11]: luciferase reporter signal suppression in cells – H4 neuroglioma cells, luminescence, dose response (AID 1990). In kind it is functional, cell-based.
Experiment [12] in a line: alpha-synuclein stem-loop luciferase translation blockers – H4 neuroglioma cells, luminescence, confirmation (AID 1988). In kind it is functional, cell-based.
For experiment [13], the system named is BJ. Briefly: BJ-TERT fibroblast viability loss – cell-based, RAS-independent, luminescence, dose response (AID 1933). In kind it is functional. The settings on record: Homo sapiens.
Experiment [14] can be described thus: DRD fibroblast viability loss – cell-based, non-viral oncogenic, luminescence, dose response (AID 1934). The settings on record: Homo sapiens. In kind it is functional.
Experiment [15] in a line: toxicity toward HepG2 liver cells – cell-based, plate reader, cherry-pick, antagonist series, cytotoxicity control, dose response (AID 743416). In kind it is functional.
A short description of experiment [16]: growth inhibition of PfATP4-mutant resistant parasites – NITD609-resistant line, SYBR Green, dry powder, dose response (AID 1159571).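 Note: parasites synchronized at ring stage by sorbitol before testing.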 In kind it is functional, cell-based.
The nature of experiment [17]: P. falciparum Dd2 growth inhibitors, dose response, SYBR Green, cherry-picked samples (AID 1159567). In kind it is functional, cell-based.
Experiment [18] is described as follows: growth inhibition of yeast DHODH-expressing 3D7 parasites – SYBR Green, dry powder samples, dose response (AID 1159570).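 Note: parasite growth measured after 72 hours of compound exposure.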 In kind it is functional, cell-based.
Experiment [19] can be described thus: Dd2 malaria parasite growth inhibition potency – SYBR Green, dry powder samples, dose response (AID 1159566).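 Note: potency for growth inhibition with lower SYBR green DNA signal.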 In kind it is functional, cell-based.
A short description of experiment [20]: toxicity to human HepG2 hepatoma cells – cell-based, plate reader, dry powder samples, cytotoxicity control, dose response (AID 1159569).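 Note: inhibitor potency with signal falling toward the positive control level.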 In kind it is functional.

Molecules are shown by their SMILES. Activity calls are given as the source filed them. Bounds are passed on as bounds.

Chain of Beta-galactosidase (Q8VNN2 whole entry): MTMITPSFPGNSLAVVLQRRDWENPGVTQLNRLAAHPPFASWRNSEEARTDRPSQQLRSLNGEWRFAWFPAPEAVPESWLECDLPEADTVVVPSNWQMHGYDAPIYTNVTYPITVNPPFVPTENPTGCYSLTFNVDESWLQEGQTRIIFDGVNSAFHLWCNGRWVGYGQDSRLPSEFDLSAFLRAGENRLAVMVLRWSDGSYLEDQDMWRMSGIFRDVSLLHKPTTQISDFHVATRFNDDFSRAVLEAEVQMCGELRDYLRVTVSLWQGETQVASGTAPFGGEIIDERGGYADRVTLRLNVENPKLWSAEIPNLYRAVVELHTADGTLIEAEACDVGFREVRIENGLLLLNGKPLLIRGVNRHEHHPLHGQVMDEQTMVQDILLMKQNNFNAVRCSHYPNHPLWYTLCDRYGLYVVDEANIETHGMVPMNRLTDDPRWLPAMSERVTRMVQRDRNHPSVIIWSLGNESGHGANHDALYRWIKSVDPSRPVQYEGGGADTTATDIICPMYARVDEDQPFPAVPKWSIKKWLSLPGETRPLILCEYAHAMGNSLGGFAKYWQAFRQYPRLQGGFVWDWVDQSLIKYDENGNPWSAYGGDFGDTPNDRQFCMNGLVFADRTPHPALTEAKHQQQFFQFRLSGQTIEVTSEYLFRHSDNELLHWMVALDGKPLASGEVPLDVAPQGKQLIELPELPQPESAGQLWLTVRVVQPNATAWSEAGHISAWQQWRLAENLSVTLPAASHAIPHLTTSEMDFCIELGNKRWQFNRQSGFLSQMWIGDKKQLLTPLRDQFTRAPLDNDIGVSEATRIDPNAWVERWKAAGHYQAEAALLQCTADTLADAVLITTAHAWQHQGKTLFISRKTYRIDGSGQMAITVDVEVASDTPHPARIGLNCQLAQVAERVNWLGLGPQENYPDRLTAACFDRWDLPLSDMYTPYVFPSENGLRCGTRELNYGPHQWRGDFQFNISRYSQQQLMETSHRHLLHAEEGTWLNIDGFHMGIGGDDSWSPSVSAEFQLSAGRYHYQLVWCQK

As to `COc1ccc(-n2cc(C(=O)c3ccccc3O)cn2)cc1`, the AC50 in experiment [1] was 8.21 µM (active); in experiment [2] it was 10.7 µM (active); in the experiment with HEK293 it was 2.43 µM (active); in experiment [3] it was > 52 µM (inactive).
As to `O=C(COc1ccc(Cl)cc1)N1CCN(S(=O)(=O)c2ccc(Cl)cc2)CC1`, at Beta-galactosidase, the IC50 was > 80 µM (inactive).
On the same count and under the same terms, the result for `O=C(c1ccco1)N1CCN(C(=O)c2cc3c(s2)-c2ccccc2OC3)CC1` reads > 80 µM (inactive); that for `N#CC(=C1CCCC1)c1nc(-c2ccc(Cl)cc2)cs1`, > 80 µM (inactive).
Turning to `Cc1[nH][nH]c(=O)c1C(c1ccc(-c2ccc(Cl)c(Cl)c2)o1)c1c(C)[nH][nH]c1=O`, the IC50 in experiment [4] is 8.73 µM (active); in [5], 18.8 µM (active). For the same compound, the EC50 on Protein RecA is 0.305 µM (active). For the same compound, the AC50 in experiment [6] was 0.281 µM (active).
For the compound `COc1ccc(-c2ccc(C(c3c(C)n[nH]c3O)c3c(C)n[nH]c3O)o2)c([N+](=O)[O-])c1`, the 50% inhibitory concentration (IC50) is 15.6 µM (active) in [4] and 28.7 µM (active) in [5]. In addition, the AC50 in experiment [7] is > 20 µM (inactive).
Regarding `COc1ccccc1N1CCN(C(=O)c2ccc3[nH]c(C)c(C)c3c2)CC1`, the EC50 was 2.14 µM (active) in experiment [8]; 2.22 µM (inconclusive) in the experiment with BJ [9]; 68.5 µM (active) in the experiment on BJ [10]; 3.53 µM (active) in [11]; 0.19 µM (active) in experiment [12]; 2.61 µM (active) in the experiment with BJ [13]. In addition, in experiment [14], the EC50 was 2.4 µM (active). In addition, the IC50 on Beta-galactosidase is > 80 µM (inactive).
As for `C=CCN1CCN(C(=O)CCCc2ccccc2)CC1`, the values for the AC50 in experiment [1], in experiment [2] and in [15] were 5.97 µM (active), 8.87 µM (active) and > 52 µM (inactive), respectively. For the same compound, the EC50 in experiment [8] is 6.53 µM (active); in experiment [11], 7.4 µM (inconclusive); in experiment [12] it was 3.79 µM (active).
As for `CCN1CCN(C(=O)/C=C/c2ccc(C(C)C)cc2)CC1`, on Beta-galactosidase, the IC50 was > 80 µM (inactive).
Regarding `CO[C@@H]1CN(C)C(=O)c2cc(NC(C)=O)ccc2OC[C@@H](C)N(Cc2ccc(F)cc2)C[C@@H]1C`, the concentration at half-maximal activity (AC50) in [1] was 42.9 µM (active); in experiment [2] it was 10.7 µM (active); in experiment [3], > 47 µM (inactive).
Take `COc1ccc2c3c([nH]c2c1)[C@H](CO)N(C(=O)Nc1ccc(F)cc1)CC31CCN(S(=O)(=O)c2ccccc2)CC1`: the concentration at half-maximal activity (AC50) in experiment [16] is 0.417 µM (active); in experiment [17], 0.909 µM (active); in [18], 2.14 µM (active); in experiment [19], 1.3 µM (active); in experiment [20], 48.9 µM (active).
For `C[C@H]1CN([C@@H](C)CO)C(=O)c2c(c3ccccc3n2C)-c2ccccc2CO[C@H]1CN(C)S(=O)(=O)c1ccc(Cl)cc1` the same measures were 0.154 µM (active), 0.396 µM (active), 0.134 µM (active), 0.108 µM (active) and 41.2 µM (active).
